Experiments:
Apolipoprotein L1 = Apolipoprotein L1 (Homo sapiens, UniProt O14791); assay: Inhibition of APOL1 G1 variant in human HEK293-T-REx cells measured by Thallium assay; type: cell-based
[1] = system: Trypanosoma brucei brucei; assay: Antitrypanosomal activity against Trypanosoma brucei brucei assessed as trypanosome lysis using recombinant APOL1 protein G1 variant and measured by Alamar blue based fluoresence assay; type: functional, organism-based

| SMILES | IC50 (Apolipoprotein L1) [nM] | IC50 [1] [nM] |
| --- | --- | --- |
| CC(C)(NC(=O)[C@H]1C[C@H](c2c(-c3ccc(F)cc3)[nH]c3c(F)cc(F)cc32)C1)C(=O)N1CCOCC1 | > 1000 | > 1000 |
| COCCNC(=O)[C@H]1C[C@H](c2c(-c3ccc(F)cc3)[nH]c3c(F)cc(F)cc32)C1 | > 1000 | 250 |
| Cn1cncc1CNC(=O)[C@H]1C[C@H](c2c(-c3ccc(F)cc3)[nH]c3c(F)cc(F)cc32)C1 | > 1000 | 250 |
| O=C([C@H]1C[C@H](c2c(-c3ccc(F)cc3)[nH]c3c(F)cc(F)cc32)C1)N(CCO)C1CC1 | < 250 | 250 |
| O=C([C@H]1C[C@H](c2c(-c3ccc(F)cc3)[nH]c3c(F)cc(F)cc32)C1)N1CCC[C@@H]1CO | 0.25 | < 250 |
| CNC(=O)C(C)NC(=O)[C@H]1C[C@H](c2c(-c3ccc(F)cc3)[nH]c3c(F)cc(F)cc32)C1 (stereo partly drawn) | 0.25 | 250 |
| O=C(NC(CO)CO)[C@H]1C[C@H](c2c(-c3ccc(F)cc3)[nH]c3c(F)cc(F)cc32)C1 | < 250 | < 250 |
| O=C(NC[C@H](O)C(F)(F)F)[C@H]1C[C@H](c2c(-c3ccc(F)cc3)[nH]c3c(F)cc(F)cc32)C1 | 0.25 | < 250 |
| NC(=O)C1CCN(C(=O)[C@H]2C[C@H](c3c(-c4ccc(F)cc4)[nH]c4c(F)cc(F)cc43)C2)CC1 | > 1000 | > 1000 |
| CC(C)(O)C1CN(C(=O)[C@H]2C[C@H](c3c(-c4ccc(F)cc4)[nH]c4c(F)cc(F)cc43)C2)C1 | > 1000 | > 1000 |
| O=C(O)CNC(=O)[C@H]1C[C@H](c2c(-c3ccc(F)cc3)[nH]c3c(F)cc(F)cc32)C1 | > 1000 | > 1000 |
| CN1CCC(NC(=O)[C@H]2C[C@H](c3c(-c4ccc(F)cc4)[nH]c4c(F)cc(F)cc43)C2)C1=O (stereo partly drawn) | < 250 | 250 |
| O=C(N[C@@H]1CCC[C@@H]1O)[C@H]1C[C@H](c2c(-c3ccc(F)cc3)[nH]c3c(F)cc(F)cc32)C1 | > 1000 | 250 |
| O=C(NC1CCOC1)[C@H]1C[C@H](c2c(-c3ccc(F)cc3)[nH]c3c(F)cc(F)cc32)C1 (stereo partly drawn) | > 1000 | 250 |
| O=C(N[C@H]1CCC[C@@H]1O)[C@H]1C[C@H](c2c(-c3ccc(F)cc3)[nH]c3c(F)cc(F)cc32)C1 | 0.25 | 250 |
| CN(CC(N)=O)C(=O)[C@H]1C[C@H](c2c(-c3ccc(F)cc3)[nH]c3c(F)cc(F)cc32)C1 | 0.25 | 250 |
| O=C1CCC(NC(=O)[C@H]2C[C@H](c3c(-c4ccc(F)cc4)[nH]c4c(F)cc(F)cc43)C2)C1 (stereo partly drawn) | > 1000 | > 1000 |
| O=C([C@H]1C[C@H](c2c(-c3ccc(F)cc3)[nH]c3c(F)cc(F)cc32)C1)N1CCCC[C@H]1CO | > 1000 | 250 |
| CC(C)[C@@H](CO)NC(=O)[C@H]1C[C@H](c2c(-c3ccc(F)cc3)[nH]c3c(F)cc(F)cc32)C1 | > 1000 | > 1000 |
| O=C1CN(C(=O)[C@H]2C[C@H](c3c(-c4ccc(F)cc4)[nH]c4c(F)cc(F)cc43)C2)CCN1 | > 1000 | > 1000 |
| Cc1cc(CNC(=O)[C@H]2C[C@H](c3c(-c4ccc(F)cc4)[nH]c4c(F)cc(F)cc43)C2)nn1C | > 1000 | 250 |
| O=C(NCC1CCOCC1)[C@H]1C[C@H](c2c(-c3ccc(F)cc3)[nH]c3c(F)cc(F)cc32)C1 | > 1000 | > 1000 |

| SMILES | IC50 (Apolipoprotein L1) [nM] | IC50 [1] [nM] |
| --- | --- | --- |
| NC(=O)[C@H]1CCCN1C(=O)[C@H]1C[C@H](c2c(-c3ccc(F)cc3)[nH]c3c(F)cc(F)cc32)C1 | 0.25 | > 1000 |
| CC(C)N1CCN(C(=O)[C@H]2C[C@H](c3c(-c4ccc(F)cc4)[nH]c4c(F)cc(F)cc43)C2)CC1=O | > 1000 | > 1000 |
| NC(=O)[C@H](CO)NC(=O)[C@H]1C[C@H](c2c(-c3ccc(F)cc3)[nH]c3c(F)cc(F)cc32)C1 | 0.25 | 250 |
| O=C1N[C@H](CO)C[C@@H]1NC(=O)[C@H]1C[C@H](c2c(-c3ccc(F)cc3)[nH]c3c(F)cc(F)cc32)C1 | > 1000 | > 1000 |
| O=C([C@H]1C[C@H](c2c(-c3ccc(F)cc3)[nH]c3c(F)cc(F)cc32)C1)N1CCC[C@@H](CO)C1 | > 1000 | > 1000 |
| O=C([C@H]1C[C@H](c2c(-c3ccc(F)cc3)[nH]c3c(F)cc(F)cc32)C1)N1CC(OCC2CCCO2)C1 (stereo partly drawn) | > 1000 | > 1000 |
| CC(C)(CO)NC(=O)[C@H]1C[C@H](c2c(-c3ccc(F)cc3)[nH]c3c(F)cc(F)cc32)C1 | < 250 | 250 |
| C[C@H](O)[C@@H](CO)NC(=O)[C@H]1C[C@H](c2c(-c3ccc(F)cc3)[nH]c3c(F)cc(F)cc32)C1 | < 250 | < 250 |
| O=C(NCCCO)[C@H]1C[C@H](c2c(-c3ccc(F)cc3)[nH]c3c(F)cc(F)cc32)C1 | 0.25 | < 250 |
| O=C([C@H]1C[C@H](c2c(-c3ccc(F)cc3)[nH]c3c(F)cc(F)cc32)C1)N1CC2(CC(O)C2)C1 | > 1000 | > 1000 |
| CN(CC1(CO)CCOCC1)C(=O)[C@H]1C[C@H](c2c(-c3ccc(F)cc3)[nH]c3c(F)cc(F)cc32)C1 | > 1000 | > 1000 |
| O=C([C@H]1C[C@H](c2c(-c3ccc(F)cc3)[nH]c3c(F)cc(F)cc32)C1)N1CC(O)C(N2CCOCC2)C1 (stereo partly drawn) | > 1000 | > 1000 |
| O=C([C@H]1C[C@H](c2c(-c3ccc(F)cc3)[nH]c3c(F)cc(F)cc32)C1)N1CC[C@H](CO)C1 | > 1000 | > 1000 |
| O=C([C@H]1C[C@H](c2c(-c3ccc(F)cc3)[nH]c3c(F)cc(F)cc32)C1)N1CCOCC1CCO (stereo partly drawn) | > 1000 | > 1000 |
| O=C(NCCOCCO)[C@H]1C[C@H](c2c(-c3ccc(F)cc3)[nH]c3c(F)cc(F)cc32)C1 | < 250 | < 250 |
| O=C(NC1(CO)CC1)[C@H]1C[C@H](c2c(-c3ccc(F)cc3)[nH]c3c(F)cc(F)cc32)C1 | 0.25 | < 250 |
| NC(=O)C(CO)NC(=O)[C@H]1C[C@H](c2c(-c3ccc(F)cc3)[nH]c3c(F)cc(F)cc32)C1 (stereo partly drawn) | < 250 | < 250 |
| O=C([C@H]1C[C@H](c2c(-c3ccc(F)cc3)[nH]c3c(F)cc(F)cc32)C1)N1CCC[C@@H](O)C1 (mixture of isomers) | 0.25 | < 250 |
| O=C([C@H]1C[C@H](c2c(-c3ccc(F)cc3)[nH]c3c(F)cc(F)cc32)C1)N1C[C@H]2C[C@@]2(CO)C1 | > 1000 | > 1000 |
| O=C(N[C@H]1CC[C@@H]1O)[C@H]1C[C@H](c2c(-c3ccc(F)cc3)[nH]c3c(F)cc(F)cc32)C1 | > 1000 | 250 |
| O=C([C@H]1C[C@H](c2c(-c3ccc(F)cc3)[nH]c3c(F)cc(F)cc32)C1)N1CCC(CO)(CO)CC1 | > 1000 | > 1000 |
| O=C(N[C@@H]1CC[C@H](O)C1)[C@H]1C[C@H](c2c(-c3ccc(F)cc3)[nH]c3c(F)cc(F)cc32)C1 | > 1000 | > 1000 |

| SMILES | IC50 (Apolipoprotein L1) [nM] | IC50 [1] [nM] |
| --- | --- | --- |
| NCCCNC(=O)[C@H]1C[C@H](c2c(-c3ccc(F)cc3)[nH]c3c(F)cc(F)cc32)C1 | 0.25 | < 250 |
| O=C1C[C@H](NC(=O)[C@H]2C[C@H](c3c(-c4ccc(F)cc4)[nH]c4c(F)cc(F)cc43)C2)C(=O)N1 | < 250 | < 250 |
| O=C([C@H]1C[C@H](c2c(-c3ccc(F)cc3)[nH]c3c(F)cc(F)cc32)C1)N1C[C@@H](O)[C@H](O)C1 | > 1000 | 250 |
| O=C(NCC1(O)CCC1)[C@H]1C[C@H](c2c(-c3ccc(F)cc3)[nH]c3c(F)cc(F)cc32)C1 | > 1000 | > 1000 |
| CC(C)(O)C(O)CNC(=O)[C@H]1C[C@H](c2c(-c3ccc(F)cc3)[nH]c3c(F)cc(F)cc32)C1 (stereo partly drawn) | > 1000 | 250 |
| O=C([C@H]1C[C@H](c2c(-c3ccc(F)cc3)[nH]c3c(F)cc(F)cc32)C1)N1CCCCC1CO (stereo partly drawn) | > 1000 | 250 |
| CC(CO)N1CCN(C(=O)[C@H]2C[C@H](c3c(-c4ccc(F)cc4)[nH]c4c(F)cc(F)cc43)C2)CC1 (stereo partly drawn) | > 1000 | > 1000 |
| C[C@@H](NC(=O)[C@H]1C[C@H](c2c(-c3ccc(F)cc3)[nH]c3c(F)cc(F)cc32)C1)C(=O)N(C)C | > 1000 | > 1000 |
| CC(C)C(CO)NC(=O)[C@H]1C[C@H](c2c(-c3ccc(F)cc3)[nH]c3c(F)cc(F)cc32)C1 (stereo partly drawn) | > 1000 | 250 |
| CN(C(=O)[C@H]1C[C@H](c2c(-c3ccc(F)cc3)[nH]c3c(F)cc(F)cc32)C1)C1(CO)CC1 | 0.25 | 250 |
| CCOCC1(CNC(=O)[C@H]2C[C@H](c3c(-c4ccc(F)cc4)[nH]c4c(F)cc(F)cc43)C2)CC1 | > 1000 | > 1000 |
| CC(=O)NC1CCCN(C(=O)[C@H]2C[C@H](c3c(-c4ccc(F)cc4)[nH]c4c(F)cc(F)cc43)C2)C1 (stereo partly drawn) | > 1000 | > 1000 |
| O=C([C@H]1C[C@H](c2c(-c3ccc(F)cc3)[nH]c3c(F)cc(F)cc32)C1)N1CCCCC1CCO (stereo partly drawn) | > 1000 | > 1000 |
| O=C([C@H]1C[C@H](c2c(-c3ccc(F)cc3)[nH]c3c(F)cc(F)cc32)C1)N1CC[C@H](CO)[C@H](O)C1 | > 1000 | > 1000 |
| O=C1CC(NC(=O)[C@H]2C[C@H](c3c(-c4ccc(F)cc4)[nH]c4c(F)cc(F)cc43)C2)CN1 (stereo partly drawn) | > 1000 | > 1000 |
| C[C@@H](O)[C@H](CO)NC(=O)[C@H]1C[C@H](c2c(-c3ccc(F)cc3)[nH]c3c(F)cc(F)cc32)C1 | > 1000 | 250 |
| O=C(NC1(CCO)CC1)[C@H]1C[C@H](c2c(-c3ccc(F)cc3)[nH]c3c(F)cc(F)cc32)C1 | 0.25 | 250 |
| CN(C)C(=O)CN(C)C(=O)[C@H]1C[C@H](c2c(-c3ccc(F)cc3)[nH]c3c(F)cc(F)cc32)C1 | 0.25 | > 1000 |
| O=C([C@H]1C[C@H](c2c(-c3ccc(F)cc3)[nH]c3c(F)cc(F)cc32)C1)N1CCC(CCO)CC1 | > 1000 | > 1000 |
| CC(C)CC(NC(=O)[C@H]1C[C@H](c2c(-c3ccc(F)cc3)[nH]c3c(F)cc(F)cc32)C1)C(N)=O (stereo partly drawn) | > 1000 | > 1000 |

Reference: ChEMBL document CHEMBL5052856, “Inhibitors of apol1 and methods of using same” (2021)
